Literature values in patent US5883123A, “Butyrate prodrugs derived from lactic acid” (Vertex Pharmaceuticals, Inc., priority 1995, dated 1999).

Assays:
[1] = test system: Cultured Erythroleukemic Cells; settings: in vitro
[2] = test system: leukemia patients
[3] = test system: tumor; settings: mice

CCCC(=O)O [butyric acid]
cell differentiation [1]: induces cell differentiation in vitro
effects in leukemia patients, by inducing cell differentiation [2]: promising effects in leukemia patients

CCCC(=O)O [arginine butyrate]
anti-tumor and anti-leukemia effects [3]: anti-tumor and anti-leukemia effects in mice
